These results are taken from PMC2566978, “Inversion of allosteric effect of arginine on N-acetylglutamate synthase, a molecular marker for evolution of tetrapods” (BMC Biochemistry, 2008).

Holding throughout (assay): NAGS activity assay, purified enzyme
What all share (format): biochemical

The target of one experiment is T1, zebrafish NAGS (Danio rerio, UniProt E7FCP8).
T1 sequence (E7FCP8 40-527): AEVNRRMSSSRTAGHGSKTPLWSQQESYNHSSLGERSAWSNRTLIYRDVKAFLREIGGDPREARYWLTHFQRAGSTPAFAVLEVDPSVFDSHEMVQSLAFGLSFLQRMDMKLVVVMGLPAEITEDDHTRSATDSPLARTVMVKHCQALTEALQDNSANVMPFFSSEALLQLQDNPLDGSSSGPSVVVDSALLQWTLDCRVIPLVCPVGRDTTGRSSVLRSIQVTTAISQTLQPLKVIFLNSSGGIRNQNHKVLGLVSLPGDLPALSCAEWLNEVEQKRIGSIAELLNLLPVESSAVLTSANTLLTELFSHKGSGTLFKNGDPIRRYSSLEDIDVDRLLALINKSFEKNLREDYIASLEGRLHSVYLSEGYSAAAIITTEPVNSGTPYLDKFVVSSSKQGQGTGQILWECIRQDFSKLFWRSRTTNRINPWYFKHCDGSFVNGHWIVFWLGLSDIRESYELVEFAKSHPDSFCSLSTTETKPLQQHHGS
The conditions noted are these: read-out: % inhibition at 1 mM.

Experiment [1] has as its target T2, NAGS from X. tropicalis (Western clawed frog) (Xenopus tropicalis, UniProt F6X3J6).
T2 sequence (F6X3J6 39-491): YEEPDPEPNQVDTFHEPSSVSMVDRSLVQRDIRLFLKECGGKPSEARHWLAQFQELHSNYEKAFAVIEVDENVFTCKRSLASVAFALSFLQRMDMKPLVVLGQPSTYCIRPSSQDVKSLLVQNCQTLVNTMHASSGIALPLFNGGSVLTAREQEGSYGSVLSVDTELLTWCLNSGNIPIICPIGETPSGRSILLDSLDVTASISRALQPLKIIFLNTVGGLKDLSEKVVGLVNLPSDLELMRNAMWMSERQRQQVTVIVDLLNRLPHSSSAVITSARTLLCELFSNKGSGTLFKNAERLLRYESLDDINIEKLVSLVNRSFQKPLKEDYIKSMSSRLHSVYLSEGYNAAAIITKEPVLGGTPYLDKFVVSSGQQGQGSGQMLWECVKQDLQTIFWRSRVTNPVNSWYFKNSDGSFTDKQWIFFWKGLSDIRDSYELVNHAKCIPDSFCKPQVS
The conditions noted are these: 50 mM glutamate, 12.5 mM AcCoA, room temperature; allosteric activator.

For the next experiment, the target named is T3, pufferfish NAGS (Takifugu rubripes, UniProt H2T4D9).
T3 sequence (H2T4D9 51-529): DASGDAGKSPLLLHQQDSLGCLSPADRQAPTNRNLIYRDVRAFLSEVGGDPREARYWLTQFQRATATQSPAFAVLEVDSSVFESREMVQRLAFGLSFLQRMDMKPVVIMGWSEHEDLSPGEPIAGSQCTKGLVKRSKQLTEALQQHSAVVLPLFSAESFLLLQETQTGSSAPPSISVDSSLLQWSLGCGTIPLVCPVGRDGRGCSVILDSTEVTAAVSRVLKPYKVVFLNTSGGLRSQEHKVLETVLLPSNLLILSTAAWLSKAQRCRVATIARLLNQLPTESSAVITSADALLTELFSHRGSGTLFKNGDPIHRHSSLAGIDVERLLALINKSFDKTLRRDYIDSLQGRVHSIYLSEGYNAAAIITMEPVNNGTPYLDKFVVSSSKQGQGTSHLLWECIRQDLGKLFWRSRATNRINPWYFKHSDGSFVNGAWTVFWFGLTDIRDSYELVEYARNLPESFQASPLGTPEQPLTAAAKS
The conditions noted are these: read-out: % inhibition at 1 mM.

Experiment [2] addresses T4, NAGS from X. laevis (African clawed frog) (Xenopus laevis, UniProt A0A8J1M136).
T4 construct: gene LOC108702180
T4 sequence (A0A8J1M136 31-491): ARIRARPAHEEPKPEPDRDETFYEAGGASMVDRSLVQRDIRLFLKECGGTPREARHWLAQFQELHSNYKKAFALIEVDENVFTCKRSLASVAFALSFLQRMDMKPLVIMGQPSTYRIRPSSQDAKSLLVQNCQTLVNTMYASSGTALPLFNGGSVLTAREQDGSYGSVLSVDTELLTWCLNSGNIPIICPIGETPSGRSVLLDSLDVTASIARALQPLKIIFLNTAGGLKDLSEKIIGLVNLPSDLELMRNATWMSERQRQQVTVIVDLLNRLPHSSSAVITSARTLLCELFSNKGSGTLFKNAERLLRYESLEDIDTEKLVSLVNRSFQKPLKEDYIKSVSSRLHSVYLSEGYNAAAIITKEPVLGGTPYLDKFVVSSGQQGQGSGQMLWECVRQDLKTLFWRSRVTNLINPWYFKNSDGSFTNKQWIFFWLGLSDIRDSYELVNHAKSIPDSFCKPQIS
The conditions noted are these: 50 mM glutamate, 12.5 mM AcCoA, room temperature; allosteric activator.

The term inhibition denotes the relative decrease from the control value, in per cent.

Take `N=C(N)NCCC[C@H](N)C(=O)O` [L-arginine]: the inhibition at 1000 µM on zebrafish NAGS was roughly 50%; at pufferfish NAGS it was roughly 20%. For the same compound, the figures for the “% activation at 1 mM” value in experiment [1] and in experiment [2] were 38% and 20%, respectively.
